# Laboratory results published in patent publication US20260109721A1, “IONIZABLE CATIONIC LIPIDS INCORPORATING SILICON: SYNTHESIS AND LNP FORMULATION” (priority 2023, published 2026).
# Tested on: HeLa cells
# Assay: Cell viability assessment with resazurin assay (Method A)
# Type: cell-based
# Conditions: human
# Experimental: The synthesized lipids were tested in term of in vitro transfection efficacy and toxicity on HeLa cells. In order to perform the mentioned biological tests, appropriate LNPs had to be formulated from the synthesized lipids. The formulation technique was different in Method A and B. The particle size, polydispersity index (PDI) and zeta potential of resulting LNPs were determined by means of Dynamic Light Scattering technique (DLS). Prior to biological testing the encapsulation efficiency (EE) of the loaded LNPs was determined by using RiboGreen RNA assay. In case of Method A Luc mRNA while in case of Method B GFP mRNA was transfected into the cells. In parallel with the transfection experiments, toxicity of the investigated LNPs was determined, in case of Method A resazurin assay while in case of Method B MTT assay was used. Additionally, the toxicity of the lipids was investigated on HepG2 cells and IC50 values were determined.
# This protocol is used to determine the metabolic activity of cells as a measure for cell viability after exposure to potentially toxic substances. Resazurin is converted in mitochondria by reduction to resorufin, which has a much higher fluorescence at ˜600 nm compared to unconverted resazurin. A lower amount/percentage of conversion is correlated with reduced cellular metabolism and indirectly to cellular death and toxicity. Care must be taken with interpretation of the read-out, as 50% reduction in resazurin conversion may mean 50% reduction of cellular metabolism of 100% alive cells, or 50% of cells dead, and any combination in between.
# • 1. Prepare 0.25 mg/ml stock solution resazurin in fresh cell culture medium. Resazurin is auto-reducing over time in solution, especially in medium, and fresh stocks should be prepared every 2-3 days. Stocks should be stored at 4° C. and protected from light. For HeLa cells, DMEM/F12 with 10% FCS is used. • 2. Dilute stock solution 10× in fresh cell culture medium to 0.025 mg/ml->ready for application on cells. For HeLa cells, DMEM/F12 with 10% FCS is used. • 3. Collect 96-well plate and replace cell-culture spent medium with 100 μl per well resazurin solution. Add some resazurin solution for background measurement in wells not containing cells. • 4. Incubate for 50 minutes in incubator at 37° C., 5% CO2, 95% RH. • 5. Transfer resazurin solution to a fresh 96- or 384-well plate. • 6. Measure in plate reader using 540/25 nm (excitation) and 610/40 nm (emission) using standard settings (PTM low/OD-1.0). • 7. Subtract the average background measurement from all samples. Set the average of the negative controls (well receiving OptiMEM only during transfection) to 100% and express all values as percentage of the control activity. Typically, at lower levels of treatment, elevation of metabolic activity is shown, whereas for toxic substances, at toxic concentrations sigmoidal curves can be obtained, with lower activity indicating higher toxicity.
row,SMILES,"Cell Viability % (Average metabolic rate over all doses, Resazurin)"
1,"CCCCC/C=C\C/C=C\CCCCCCCCOC(CCCCCCC/C=C\C/C=C\CCCCC)O[Si](C)(C)OCCCCCCN1CCCCC1CO (stereo not shown) [Example 64, (1-((20Z,23Z)-10-((8Z,11Z)-heptadeca-8,11-dien-1-yl)-8,8-dimethyl-7,9,11-trioxa-8-silanonacosa-20,23-dien-1-yl)piperidin-2-yl)methanol]",100%
2,"CCCCC/C=C\C/C=C\CCCCCCCCOC(CCCCCN(C)CC(O)CO)O[Si](C)(C)OCCCCCCCC/C=C\C/C=C\CCCCC (stereo not shown) [Example 66, (22Z,25Z)-4,12,12-trimethyl-10-(((9Z,12Z)-octadeca-9,12-dien-1-yl)oxy)-11,13-dioxa-4-aza-12-silahentriaconta-22,25-diene-1,2-diol]",91%
3,"C#CCN(C)CCCCCCO[Si](C)(C)OC(CCCCCCC/C=C\C/C=C\CCCCC)OCCCCCCCC/C=C\C/C=C\CCCCC (stereo not shown) [Example 67, (20Z,23Z)-10-((8Z,11Z)-heptadeca-8,11-dien-1-yl)-N,8,8-trimethyl-N-(prop-2-yn-1-yl)-7,9,11-trioxa-8-silanonacosa-20,23-dien-1-amine]",94%
4,"CCCCC/C=C\C/C=C\CCCCCCCCOC(CCCCCCC/C=C\C/C=C\CCCCC)O[Si](C)(C)OCCCCCCN(C)Cc1cn(C2[C@H](O)O[C@H](CO)[C@@H](O)[C@@H]2O)nn1 (stereo partly drawn) [Example 68, (4R,5S,6R)-3-(4-((22Z,25Z)-12-((8Z,11Z)-heptadeca-8,11-dien-1-yl)-2,10,10-trimethyl-9,11,13-trioxa-2-aza-10-silahentriaconta-22,25-dien-1-yl)-1H-1,2,3-triazol-1-yl)-6-(hydroxymethyl)tetrahydro-2H-pyran-2,4,5-triol]",92%
5,"CCCCC/C=C\C/C=C\CCCCCCCCOC(CCCCCCC/C=C\C/C=C\CCCCC)O[Si](C)(C)OCCCCCCN1CCN(CCCCCCO[Si](C)(C)OC(CCCCCCC/C=C\C/C=C\CCCCC)OCCCCCCCC/C=C\C/C=C\CCCCC)CC1 (stereo not shown) [Example 70, 1,4-bis((20Z,23Z)-10-((8Z,11Z)-heptadeca-8,11-dien-1-yl)-8,8-dimethyl-7,9,11-trioxa-8-silanonacosa-20,23-dien-1-yl)piperazine]",99%
6,"CCCCC/C=C\C/C=C\CCCCCCCCOC(CCCCCCC/C=C\C/C=C\CCCCC)O[Si](C)(C)OCCCCCCN(CCO)CCN(CCO)CCCCCCO[Si](C)(C)OC(CCCCCCC/C=C\C/C=C\CCCCC)OCCCCCCCC/C=C\C/C=C\CCCCC (stereo not shown) [Example 71, (26Z,29Z)-16-((8Z,11Z)-heptadeca-8,11-dien-1-yl)-3-((20Z,23Z)-10-((8Z,11Z)-heptadeca-8,11-dien-1-yl)-8,8-dimethyl-7,9,11-trioxa-8-silanonacosa-20,23-dien-1-yl)-6-(2-hydroxyethyl)-14,14-dimethyl-13,15,17-trioxa-3,6-diaza-14-silapentatriaconta-26,29-dien-1-ol]",85%
7,"CCCCCCCC/C=C\CCCCCCCC(OCC(CCCCCCCC)SCCCCC)O[Si](C)(C)OCCCCCCN(CCO)CCO (stereo not shown) [Example 72, (Z)-13-(heptadec-8-en-1-yl)-3-(2-hydroxyethyl)-11,11-dimethyl-16-octyl-10,12,14-trioxa-17-thia-3-aza-11-siladocosan-1-ol]",107%
8,"CCCCCCCC/C=C\CCCCCCCC(OCC(CCCCCCCC)SCCCCCCCCCC)O[Si](C)(C)OCCCCCCN(CCO)CCO (stereo not shown) [Example 73, (Z)-13-(heptadec-8-en-1-yl)-3-(2-hydroxyethyl)-11,11-dimethyl-16-octyl-10,12,14-trioxa-17-thia-3-aza-11-silaheptacosan-1-ol]",107%
9,"CCCCCCCC/C=C\CCCCCCCC(OCCCCCCCCCCCC1CCCCC1)O[Si](C)(C)OCCCCCCN(CCO)CCO (stereo not shown) [Example 74, (Z)-25-cyclohexyl-13-(heptadec-8-en-1-yl)-3-(2-hydroxyethyl)-11,11-dimethyl-10,12,14-trioxa-3-aza-11-silapentacosan-1-ol]",107%
10,"CCCCCCCC/C=C\CCCCCCCC(OCCC(C)CCCC(C)CCCC(C)CCCC(C)C)O[Si](C)(C)OCCCCCCN(CCO)CCO (stereo not shown) [Example 75, (Z)-13-(heptadec-8-en-1-yl)-3-(2-hydroxyethyl)-11,11,17,21,25,29-hexamethyl-10,12,14-trioxa-3-aza-11-silatriacontan-1-ol]",120%
11,"CCCCCCCC/C=C\CCCCCCCC(OCCCCCCCCCCCCCCC(C)C)O[Si](C)(C)OCCCCCCN(CCO)CCO (stereo not shown) [Example 76, (Z)-13-(heptadec-8-en-1-yl)-3-(2-hydroxyethyl)-11,11,29-trimethyl-10,12,14-trioxa-3-aza-11-silatriacontan-1-ol]",110%
12,"CCCCC/C=C\C/C=C\CCCCCCCCOC(CCCCCCC/C=C\C/C=C\CCCCC)O[Si](C)(C)OCCCCCCN(C)[C@H](CO)Cc1ccccc1 (stereo partly drawn) [Example 77, (2S,23Z,26Z)-2-benzyl-13-((8Z,11Z)-heptadeca-8,11-dien-1-yl)-3,11,11-trimethyl-10,12,14-trioxa-3-aza-11-siladotriaconta-23,26-dien-1-ol]",112%
13,"CCCCCCCC/C=C\CCCCCCCCOC(CCCCCCC/C=C\CCCCCCCC)O[Si](C)(C)OCCCCCCN(C)[C@H](CO)Cc1ccccc1 (stereo partly drawn) [Example 78, (2S,Z)-2-benzyl-13-((Z)-heptadec-8-en-1-yl)-3,11,11-trimethyl-10,12,14-trioxa-3-aza-11-siladotriacont-23-en-1-ol]",121%
14,"CCCCC/C=C\C/C=C\CCCCCCCCOC(CCCCCCC/C=C\C/C=C\CCCCC)O[Si](C)(C)OCCCCCCN(C)C (stereo not shown) [Example 79, (20Z,23Z)-10-((8Z,11Z)-heptadeca-8,11-dien-1-yl)-N,N,8,8-tetramethyl-7,9,11-trioxa-8-silanonacosa-20,23-dien-1-amine]",91%
15,"CCCCC/C=C\C/C=C\CCCCCCCCO[Si](C)(C)OC(CCCCCCC/C=C\C/C=C\CCCCC)OCCCN(C)C (stereo not shown) [Example 80, (17Z,20Z)-5-((8Z,11Z)-heptadeca-8,11-dien-1-yl)-N,N,7,7-tetramethyl-4,6,8-trioxa-7-silahexacosa-17,20-dien-1-amine]",99%
16,"CCCCC/C=C\C/C=C\CCCCCCCCO[Si](C)(C)OC(CCCCCCC/C=C\CCCCCCCC)OCCCN(C)C (stereo not shown) [Example 81, (17Z,20Z)-5-((Z)-heptadec-8-en-1-yl)-N,N,7,7-tetramethyl-4,6,8-trioxa-7-silahexacosa-17,20-dien-1-amine]",100%
17,"CCCCC/C=C\C/C=C\CCCCCCCCOC(CCCCCCC/C=C\C/C=C\CCCCC)O[Si](C)(C)O[Si](C)(C)CCCCCCN(CCO)CCO (stereo not shown) [Example 82, (24Z,27Z)-14-((8Z,11Z)-heptadeca-8,11-dien-1-yl)-3-(2-hydroxyethyl)-10,10,12,12-tetramethyl-11,13,15-trioxa-3-aza-10,12-disilatritriaconta-24,27-dien-1-ol]",97%
18,"CCCCCCCC/C=C\CCCCCCCCOC(=O)C(C)(C)CC(OCCCCCCCC/C=C\CCCCCCCC)O[Si](C)(C)OCCCCCCN(CCO)CCO (stereo not shown) [Example 84, (Z)-octadec-9-en-1-yl 1-hydroxy-3-(2-hydroxyethyl)-11,11,15,15-tetramethyl-13-(((Z)-octadec-9-en-1-yl)oxy)-10,12-dioxa-3-aza-11-silahexadecan-16-oate]",114%
19,"CCCCCCCC/C=C\CCCCCCCCOC(=O)C(C)(C)CC(OCCCCCCCC/C=C\CCCCCCCC)O[Si](C)(C)OCCCCCCN1CCOCC1 (stereo not shown) [Example 85, (Z)-octadec-9-en-1-yl 4-((dimethyl((6-morpholinohexyl)oxy)silyl)oxy)-2,2-dimethyl-4-(((Z)-octadec-9-en-1-yl)oxy)butanoate]",110%
